# Experimental data as given in patent US9365597B2, “Mitochondria-targeted inhibitors of cytochrome c peroxidase for protection from apoptosis” (Brock University, priority 2011, dated 2016).
# Experiments:
# [1] = target: T1, cyt c/TLCL (Equus caballus, UniProt P00004); assay: cyt c/H2O2-induced TLCL (tetra-linoleoyl-cardiolipin) peroxidation, ESI-MS; assay type: biochemical; details: for inhibition of cyt c/H2O2-induced oxidation of TLCL: cyt c 4 μM, TLCL 100 μM, H2O2 80 μM, 10 min, 37° C.; for oxidation of TLCL at ratio of cyt c to compound of 1:20: cyt c:compound 1:20
# T1 construct: purchased Sigma (St. Louis, Mo.)
# Procedure: For measurement of TLCL oxidation, cyt c (4 μM) was incubated with TLCL (100 μM) containing liposomes (TLCL/cyt c ratio-20:1) and H2O2 (80 μM) for 10 min at 37° C. The reaction was stopped by catalase (150 units/ml) and CL was extracted using Folch procedure^37. Analysis of (hydroperoxy- and hydroxy-) oxidized phospholipid species was performed as described^30. TLCL and its oxidized molecular species were extracted by the Folch procedure^37 and separated on a normal phase column (Luna 3 μm Silica 100A, 150×2 mm, Phenomenex, Torrance Calif.). […] The ESI probe was operated at a voltage differential of 3.5-5.0 kV in the negative ion mode. Capillary temperature was maintained at 150° C. Using range zoom (200-2000 m/z) in negative ion mode, the centroid spectra were acquired.
# Small unilamellar liposomes were prepared from dioleoylphosphatidylcholine (DOPC) and TOCL (1:1 ratio) or DOPC and TLCL (4:1 ratio) by sonication in HEPES buffer (20 mM with 100 μM diethylene triamine pentaacetic acid (DTPA) (pH 7.4) 3×60 sec, relaxation time 2 min, 4° C.).
# [2] = system: mouse embryonic cells; assay: ATP levels in mouse embryonic cells (bioluminescent kit); assay type: cell-based
# Procedure: ATP levels in cells were measured using ATP bioluminescent somatic cell assay kit (St. Louis, Mo.) according to the manufacturer's instructions.
# [3] = system: mouse embryonic cells; assay: γ-Irradiation induced apoptosis in mouse embryonic cells (PS externalization Annexin V/PI, caspase 3/7, cyt c release); assay type: cell-based; details: for necrotic cells (PI-positive, Annexin V-positive) after irradiation and treatment / apoptotic cells (PI-negative, Annexin V-positive) after irradiation and treatment: 10 Gy; for necrotic cells (PI-positive, Annexin V-positive) after irradiation and treatment: irradiated only 12.9%; for apoptotic cells (PI-negative, Annexin V-positive) after irradiation and treatment: irradiated only 28.9%
# Procedure: Mouse embryonic cells were seeded on a 35 mm dish at a cell density of 5×10^4/dish, and allowed to attach overnight. The cells were γ-irradiated at a dose of 10 Gy using a Shepherd model 143-45A irradiator (J.L. Shepherd & Associates, CA). Ten min after irradiation, different concentrations of TPP-ISA or TPP-IOA (2.5 and 5 μM) were added and cells were incubated at 37° C. in 5% CO2 for 48 h. Then, cells were harvested for measuring phosphatidylserine externalization by an Annexin V/PI kit and caspase 3/7 activity using a Caspase-Glo® 3/7 Assay kit. Data are means±S.D., n=3. *p<0.01 vs. irradiated only cells.
# Phosphatidylserine externalization was determined by an Annexin V-FITC apoptosis detection kit (Biovision) according to the manufacturer's instructions.
# Caspase-3/7 activity was measured using a luminescence Caspase-Glo 3/7 assay kit (Promega) according to the manufacturer's instructions.
# Cells were collected after 48 h post-irradiation incubation and resuspended in lysis buffer containing 0.05% digitonin for 4 min on ice. Supernatants were collected after centrifugation for 10 min at 10,000 g. Equal amounts of protein were subject to 15% SDS-PAGE, transferred onto a nitrocellulose membrane, and probed with antibodies against cyt c (clone 7H, 8.2; C12, BD Pharmingen) or actin (Novus) (loading control) followed by horseradish peroxidase-coupled detection. The protein band profile was analysed by densitometry using Labworks image acquisition and analysis software (UVP).
# [4] = system: caspase-3 activation in S-100 from mouse embryonic cells; assay: Cell-free apoptosis system (S100): caspase-3 activation by exogenous cyt c/dATP; assay type: biochemical; details: S100, 1 mM dATP, 1 μM cyt c, 90 min
# Procedure: The cytosol extracts (S100) of mouse embryonic cells were obtained as described previously^38 with minor modifications. Briefly, the cells were washed twice in cold phosphate-buffered saline, pH 7.4, and the resulting pellet was resuspended in buffer containing 25 mM HEPES-KOH, pH 7.0, 10 mM KCl, 1.5 mM MgCl2, 1 mM EDTA, 1 mM EGTA, 1 mM DTT, 0.1 mM phenylmethylsulfonyl fluoride, 0.05% digitonin, and 1% protease inhibitor mixture for 2 min at 4° C. Cells were centrifuged at 4° C. for 10 min at 10,000×g. The resulting supernatant was further centrifuged at 4° C. for 50 min at 100,000×g. The supernatant was collected as S-100 and kept at −80° C. until further use. For caspase-3 activation, S100 (5 μg of protein/μl) was incubated with 1 mM dATP and 1 μM cyt c for 90 min at 37° C. The caspase-3 activity was evaluated using Enzchek caspase-3 assay kit as described in the manufacturer's manual (Invitrogen, Carlsbad, Calif.).
# [5] = system: mouse embryonic cells; assay: Clonogenic survival of mouse embryonic cells after γ-irradiation; assay type: cell-based; details: 2.5 μM added 30 min post γ-irradiation; single-hit multi-target model; untreated 1.33±0.08
# Procedure: Cells were plated in 35-mm dishes with 2 ml culture medium at the appropriate density (between 100 and 1000 cells per dish). TPP-ISA (2.5 μM) or TPP-IOA (2.5 μM) was added to the cell culture 30 min post γ-irradiation. Medium containing TPP-ISA or TPP-IOA was replaced with fresh complete culture medium after 4 hrs. Colonies were fixed and stained with 0.25% crystal violet and 10% formalin (35% v/v) in 80% methanol for 30 min after a 7-day incubation, and those with >50 cells were scored as survivors. The surviving fraction was calculated as the plating efficiency (=number of colonies counted/number of cells seeded×100%) of samples relative to that of control. The data were fitted to a single-hit multi-target model. D0—the dose needed to reduce cell surviving fraction to 37% (1/e)—was estimated from the curves fitted to evaluate the radiomitigative effects of TPP-ISA and TPP-IOA.
# [6] = system: C57BL/6NTac female mice; assay: Survival of mice after 9.25 Gy total body irradiation, cesium irradiator; assay type: in vivo, mouse; details: for radiomitigative effect (survival): i.p. 5 mg per kg, 10 min after irradiation
# [7] = system: C57BL/6NTac female mice; assay: Survival of mice after 9.25 Gy total body irradiation, linear accelerator; assay type: in vivo, mouse; details: for Overall Survival (52 days): p versus irradiated mice / Survival Over First 20 Days: p versus irradiated mice: log-rank
# Procedure: C57BL/6NTac female mice were exposed to total body irradiation to a dose of 9.25 Gy using a linear accelerator (n=10-23 mice per group). The mice were injected i.p. with TPP-IOA (5 mg per kg body weight in 100 μl of water containing 25% ethanol) at 1 h or 10 min before irradiation or 10 min, 5 or 24 h after irradiation. Mice exposed to: total body irradiation at the dose of 9.25 Gy only (black circles); to total body irradiation at the dose of 9.25 Gy and injected with TPP-IOA (5 mg per kg body weight) 10 min (grey circles), 5 h (downward-pointing triangles) and 24 h (lower grey squares) thereafter. Mice injected with TPP-IOA (5 mg per kg body weight) 10 min (upper grey squares) and 1 h (upward-pointing triangles) before total body irradiation (9.25 Gy).
# C57BL/6NTac female mice were anaesthetized with Nembutal (1 mg per 20 g mouse), irradiated to a total body dose of 9.25 Gy using either a Shepherd Mark 1 Model 68 cesium irradiator at a dose rate of 80 cGy min^−1 (31-35 mice per group) or a Varian TrueBeam linear accelerator (Varian Medical Systems) at 100 monitor units or 100 cGy min^−1 using 6 MV photons with a 40 cm×40 cm field at 100 SSD (10-23 mice per group). Mice were injected intraperitoneally (i.p.) with 5 mg per kg body weight of TPP-IOA in a 100 μl volume of water containing 25% ethanol at 1 h before irradiation, 10 min before irradiation, 10 min after irradiation, 5 h after irradiation and 24 h after irradiation. Other groups were injected i.p. with 2.5 mg per kg body weight of TPP-IOA or 5 mg per kg body weight of TPP-ISA 10 min after irradiation. The mice were followed for the development of haematopoietic syndrome (at which time they were killed).
# The log-rank test was used for three analyses: the comparison of overall survival that is defined as the time from the date of radiation to the date of death for all mice under study; the comparison of short-term survival over the first 20 days, that is, the overall survival count at 20 days; and the comparison of conditional survival in mice surviving 20 or more days, that is, the time from the date of radiation to the date of death for all mice who survived 20 days or longer after radiation. All these comparisons were made between each of the treated groups and the radiation-only control group.
# [8] = 5 mg/kg body weight i.p., 10 min after 9.25Gy
# [9] = 2.5 mg/kg body weight i.p., 10 min after 9.25 Gy
# [10] = 5 mg/kg body weight i.p., 10 min before 9.25Gy
# [11] = 5 mg/kg body weight i.p., 1 hr before 9.25Gy
# [12] = 5 mg/kg body weight i.p., 5 hr after 9.25Gy
# [13] = 5 mg/kg body weight i.p., 24 hr after 9.25Gy
# T1 sequence (P00004 2-105 limits assumed): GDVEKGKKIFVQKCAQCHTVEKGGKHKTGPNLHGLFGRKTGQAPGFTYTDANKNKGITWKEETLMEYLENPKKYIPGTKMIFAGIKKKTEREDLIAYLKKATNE
smiles,measurement,setting,value
CCCCCCC(CCCCCCCCCCC(=O)OCCC[P+](c1ccccc1)(c1ccccc1)c1ccccc1)n1ccnc1.[Br-] (stereo not drawn) [TPP-ISA],inhibition of cyt c/H2O2-induced oxidation of TLCL,[1],inhibited cyt c/H2O2-induced oxidation of TLCL in a concentration-dependent manner
same,oxidation of TLCL at ratio of cyt c to compound of 1:20,[1],completely blocked
same,effect on ATP levels,[2],Neither TPP-IOA nor TPP-ISA had any effect
same,"necrotic cells (PI-positive, Annexin V-positive) after irradiation and treatment",[3],7.8%
same,"apoptotic cells (PI-negative, Annexin V-positive) after irradiation and treatment",[3],13.9%
same,caspase activation caused by exogenously added cyt c,[4],completely insensitive
same,"D0, the dose needed to reduce cell surviving fraction to 37% (1/e)",[5],1.67±0.06
same,radiomitigative effect (survival),[6],strong radiomitigative effect
same,Overall Survival (52 days): p versus irradiated mice,[7]; [8],0.0114
same,Survival Over First 20 Days: p versus irradiated mice,[7]; [8],0.0114
CCCCCCC(C/C=C\CCCCCCCC(=O)OCCC[P+](c1ccccc1)(c1ccccc1)c1ccccc1)n1ccnc1.[Br-] (stereo not drawn) [TPP-IOA],inhibition of cyt c/H2O2-induced oxidation of TLCL,[1],inhibited cyt c/H2O2-induced oxidation of TLCL in a concentration-dependent manner
same,oxidation of TLCL at ratio of cyt c to compound of 1:20,[1],completely blocked
same,effect on ATP levels,[2],Neither TPP-IOA nor TPP-ISA had any effect
same,"necrotic cells (PI-positive, Annexin V-positive) after irradiation and treatment",[3],8.2%
same,"apoptotic cells (PI-negative, Annexin V-positive) after irradiation and treatment",[3],14.8%
same,decrease in the number of apoptotic cells,[3]; versus irradiated only cells,twofold
same,reduction in the number of necrotic cells,[3]; versus irradiated only cells,1.6 fold
same,caspase activation caused by exogenously added cyt c,[4],completely insensitive
same,"D0, the dose needed to reduce cell surviving fraction to 37% (1/e)",[5],1.71±0.05
same,"P (two-sided log-rank test), TPP-IOA versus TPP-ISA",[6]; 5 mg per kg 10 min after irradiation,0.6389
same,radiomitigative effect (survival),[6],strong radiomitigative effect
same,"mitigating the mice against irradiation, lower dose","[7]; 2.5 mg per kg body weight, 10 min after irradiation",not effective
same,Overall Survival (52 days): Median Survival (95% Confidence Interval),[7]; [9],"17 (14, —) days"
same,Survival Over First 20 Days: Median Survival (95% Confidence Interval),[7]; [9],"17 (14, —) days"
same,Overall Survival (52 days): p versus irradiated mice,[7]; [9],0.0525
same,Survival Over First 20 Days: p versus irradiated mice,[7]; [9],0.0525
same,survival when given at later time points after irradiation,"[7]; 5 mg per kg, 5 or 24 h after irradiation",significant increase in survival
same,protection when given before irradiation,"[7]; 5 mg per kg, 10 min or 1 h before irradiation",protective
same,Overall Survival (52 days): Median Survival (95% Confidence Interval),[7]; [8],"— (—, —)"
same,Survival Over First 20 Days: Median Survival (95% Confidence Interval),[7]; [8],"— (—, —)"
same,Overall Survival (52 days): p versus irradiated mice,[7]; [8],<0.0001
same,Survival Over First 20 Days: p versus irradiated mice,[7]; [8],<0.0001
same,Overall Survival (52 days): p versus irradiated mice,[7]; [10],0.0009
same,Survival Over First 20 Days: p versus irradiated mice,[7]; [10],0.0009
same,Overall Survival (52 days): p versus irradiated mice,[7]; [11],0.0230
same,Survival Over First 20 Days: p versus irradiated mice,[7]; [11],0.0230
same,Overall Survival (52 days): p versus irradiated mice,[7]; [12],0.0030
same,Survival Over First 20 Days: p versus irradiated mice,[7]; [12],0.0030
same,Overall Survival (52 days): Median Survival (95% Confidence Interval),[7]; [13],"18 (13, —) days"
same,Survival Over First 20 Days: Median Survival (95% Confidence Interval),[7]; [13],"18 (13, —) days"
same,Overall Survival (52 days): p versus irradiated mice,[7]; [13],0.0416
same,Survival Over First 20 Days: p versus irradiated mice,[7]; [13],0.0416
